According to US20150376654A1 (priority 2011, published 2015):
Read-outs that look alike come from different tables or passages of the source.

How the values were obtained:
[1] = test system: Clostridium autoethanogenum DSM10061
Protocol: (§1) The ethanol tolerance of three acetogenic strains Clostridium ljungdahlii DSM13583, Clostridium autoethanogenum DSM10061, and C. autoethanogenum DSM23693 was tested in serum bottles.
(§2) Ethanol was added in various concentrations to an active growing culture at 37° C. in PETC medium (Table 1) with 30 psi steel mill gas as substrate. The media was prepared by using standard anaerobic techniques (Hungate R E. A roll tube method for cultivation of strict anaerobes, In Norris J R and Ribbons D W (eds.), Methods in Microbiology, vol. 3B. Academic Press, N Y, 1969: 117-132; Breznak J A and Costilow R N, Physicochemical factors in growth, In Gerhardt P (ed.), Methods for general and molecular bacteriology. American Society for Microbiology, Washington, 1994: 137-154). […] Slightly acidified water was used (0.005 M H2SO4) as mobile phase with a flow rate of 0.7 ml/min. To remove proteins and other cell residues, 400 μl samples were mixed with 100 μl of a 2% (w/v) 5-Sulfosalicylic acid and centrifuged at 14,000×g for 3 min to separate precipitated residues. 10 μl of the supernatant were then injected into the HPLC for analyses.

[2] = test system: Clostridium autoethanogenum DSM23693
Protocol: as §1, §2

[3] = test system: Clostridium ljungdahlii DSM13583; conditions: 50 g/L ethanol, serum bottle studies
Protocol: as §1, §2

[4] = test system: C. autoethanogenum DSM23693 transformed strain carrying plasmid pMTL85246-GroESL; conditions: PETC media, 30 psi steel mill gas, biomass at 600 nm
Protocol: (§3) To investigate whether overexpression of GroESL enhances ethanol tolerance of C. autoethanogenum DSM23693, both wild-type (WT), i.e. parental microorganism and transformed strain carrying plasmid pMTL85246-GroESL were challenged with different concentrations of ethanol (FIG. 8).
(§4) Growth experiments in triplicates were carried out in 50 ml PETC media (Table 1) in serum bottles sealed with rubber stoppers and 30 psi steel mill gas (collected from New Zealand Steel site in Glenbrook, NZ; composition: 44% CO, 32% N2, 22% CO2, 2% H2) in the headspace as sole energy and carbon source. […] All cultures were inoculated to the same optical density using the same pre-culture for either wild-type (parental) or transformed strain. Changes in biomass were measured spectrophotometrically at 600 nm until growth ceased. The maximum biomass of each culture was compared with the unchallenged culture.

[5] = test system: C. autoethanogenum DSM23693 wild-type (WT), parental; conditions: PETC media, 30 psi steel mill gas
Protocol: as §3, §4

[6] = test system: C. autoethanogenum DSM10061 chaperone over-expressing (pMTL83156-groESL) transformants; conditions: for OD600 reached: 37 h post inoculation, MMYF medium
Protocol: (§5) The experiment was first conducted as described above using PETC medium and autotrophic conditions with CO as substrate (FIG. 16a) and afterwards repeated using a different growth medium and heterotrophic conditions with fructose as substrate to rule out the effect of the growth media and substrate (FIG. 16b). A plasmid control was included. […] For ethanol challenge assay, 500 μL of two day old cultures were inoculated into each of five 60 mL serum bottles containing 20 mL of selective MMYF medium and incubated at 37° C. without agitation. […] Static incubation at 37° C. was allowed for 80-100 hours and the growth was monitored by measuring the optical density at a wavelength of 600 nm using Jenway 7300 spectrophotometer. Microscope examinations were routinely carried out.
(§6) The experiment was first conducted as described above using PETC medium and autotrophic conditions with CO as substrate (FIG. 16a) and afterwards repeated using a different growth medium and heterotrophic conditions with fructose as substrate to rule out the effect of the growth media and substrate (FIG. 16b). A plasmid control was included. Both plasmid control (pMTL83157) transformants and chaperone over-expressing (pMTL83156-groESL) transformants were cultured anaerobically in MMYF medium supplemented with freshly prepared 7.5 μg/mL thiamphenicol (final concentration). For ethanol challenge assay, 500 μL of two day old cultures were inoculated into each of five 60 mL serum bottles containing 20 mL of selective MMYF medium and incubated at 37° C. without agitation. […] Static incubation at 37° C. was allowed for 80-100 hours and the growth was monitored by measuring the optical density at a wavelength of 600 nm using Jenway 7300 spectrophotometer. Microscope examinations were routinely carried out.

[7] = test system: C. autoethanogenum DSM10061 plasmid control (pMTL83157) transformants; assay: microbe, parasite or virus in culture
Protocol: (§7) Anaerobic ethanol was administered at 12 hour post inoculation.
as §5, §6

[8] = test system: C. autoethanogenum DSM10061 pMTL83156-grpE-dnaK-dnaJ transformant; conditions: 5 g/L, 10 g/L and 25 g/L ethanol, up to 102 h post inoculation
Protocol: as §7, §5
The experiment was first conducted as described above using PETC medium and autotrophic conditions with CO as substrate (FIG. 16a) and afterwards repeated using a different growth medium and heterotrophic conditions with fructose as substrate to rule out the effect of the growth media and substrate (FIG. 16b). A plasmid control was included. […] Static incubation at 37° C. was allowed for 80-100 hours and the growth was monitored by measuring the optical density at a wavelength of 600 nm using Jenway 7300 spectrophotometer. […]

[9] = test system: Clostridium ljungdahlii pMTL83155-groESL (phosphotransacetylase promoter); conditions: construct with the phosphotransacetylase/acetate kinase operon promoter
Protocol: In addition, the effect of different promoter sequences was evaluated. The two strong C. autoethanogenum promoters of pyruvate:ferredoxin oxidoreductase and phosphotransacetylase/acetate kinase operon were used.

[10] = test system: Clostridium ljungdahlii DSM13583 pMTL83157 plasmid control
[11] = test system: Clostridium ljungdahlii DSM13583 pMTL83156-groESL transformants
[12] = test system: Clostridium ljungdahlii DSM13583 pMTL83156-grpE-dnaK-dnaJ transformants
[13] = test system: Zymomonas mobilis or Lactococcus strains; conditions: cited from earlier work
majority of bacteria = conditions: cited from earlier work
[14] = test system: Two species of the genus Clostridium; conditions: cited from earlier work
[15] = test system: Clostridium acetobutylicum overproducing GroESL; conditions: overproduction of GroESL; cited from earlier work
[16] = 50 g/L ethanol, serum bottle studies
[17] = Clostridium autoethanogenum, DSM10061, read-out: OD600 inhibition (% reduction in OD600 relative to unchallenged culture)
[18] = 5 g/L ethanol added after 12 hours, 66 hours

Molecule: CCO [ethanol]
- growth in presence of ethanol ([1]; 25 g/L ethanol): unable to grow
- growth in presence of ethanol [1, 16]: none of the strains was able to grow
- natural tolerance to ethanol ([2]; 25 g/L ethanol): tolerant
- growth in presence of ethanol [2, 16]: none of the strains was able to grow
- ethanol concentration at which growth was inhibited ([2]; serum bottles, PETC medium, 37° C., 30 psi steel mill gas): 10-20 g/l
- growth in presence of ethanol [3]: none of the strains was able to grow
- doublings of culture when challenged with ethanol ([4]; 45 g/l ethanol): 2.14 times
- doublings of culture when challenged with ethanol ([4]; 60 g/l ethanol): 1.27 times
- doubling of culture when challenged with ethanol ([5]; 45 g/l ethanol, biomass at 600 nm): 0.39 doubling
- biomass change when ethanol was added ([5]; 60 g/l ethanol): biomass even dropped
- growth after addition of ethanol ([5]; 60 g/l ethanol): ceased
- OD600 reached ([6]; 5 g/L ethanol added 12 hour post inoculation): 0.38
- growth relative to plasmid control ([6]; 5 g/L, 10 g/L and 25 g/L ethanol at 12 hour post inoculation): significantly earlier growth
- growth in presence of ethanol ([6]; 25 g/L ethanol): able to grow
- OD600 reached ([6]; 25 g/L ethanol added 12 hour post inoculation): 0.31
- growth in presence of ethanol ([6]; 50 g/L ethanol): able to grow
- biomass relative to plasmid control ([6]; all levels of ethanol challenge): higher biomass
- time to exceed OD600 0.25 ([7]; 5 g/L ethanol added 12 hour post inoculation, MMYF medium): more than 102 h
- OD600 reached ([7]; 25 g/L ethanol added 12 hour post inoculation, 78 h post inoculation, MMYF medium): 0.29
- inhibition at 10000 µg/mL [7, 17]: 74%
- inhibition at 25000 µg/mL [7, 17]: 79%
- growth inhibition by ethanol challenge relative to plasmid control [8]: significantly less inhibited
- ethanol tolerance over the wild-type [9]: didn't enhance ethanol tolerance
- change in OD600 [10]: reduction in OD600
- OD600 [10, 18]: ~0.66
- OD600 ([10]; 10 g/L ethanol added after 12 hours, 101 h post inoculation): 0.67
- OD600 ([10]; 25 g/L ethanol added after 12 hours, 30 h post inoculation): 0.20
- change in OD600 [11]: reduction in OD600
- ethanol tolerance over the wild-type [11]: significantly enhanced
- time to reach OD600 of ~0.6 relative to plasmid control [11]: significantly earlier
- OD600 [11, 18]: 0.97
- OD600 ([11]; 25 g/L ethanol added after 12 hours, 36 h post inoculation): 0.42
- OD600 relative to plasmid controls [12]: higher OD600 than plasmid controls
- time to reach OD600 of ~0.6 relative to plasmid control [12]: significantly earlier
- OD600 [12, 18]: 1.12
- OD600 ([12]; 10 g/L ethanol added after 12 hours, 114 h post inoculation): 1.15
- OD600 ([12]; 25 g/L ethanol added after 12 hours, 36 hrs. post inoculation): 0.48
- increase in OD600 ([12]; 50 g/L ethanol challenge at 12 hour post inoculation): 0.096
- tolerated ethanol [13]: more than 10%
- maximum tolerated ethanol (majority of bacteria): 4-7%

Molecule: butanol
- tolerated butanol level [14]: around 1.5%
- tolerated butanol level (hardly exceeded) (majority of bacteria): 1.5-2.5%
- reduction of inhibition by butanol challenge compared to the wild-type [15]: up to 85%
